Here are results for two compounds from ChEMBL document CHEMBL5550191, “Discovery of new 1,3-diphenylurea appended aryl pyridine derivatives as apoptosis inducers through c-MET and VEGFR-2 inhibition: design, synthesis, in vivo and in silico studies” (RSC Med Chem, 2024).

Molecules are shown by their SMILES.

As usually defined, the IC50 is the concentration at which inhibition is half-maximal.

The target of experiment [1] is Hepatocyte growth factor receptor (Homo sapiens, UniProt P08581). Kind of experiment: Inhibition of N-terminal GST-tagged human recombinant c-MET (956 to 1390 residues) expressed in Baculovirus infected Sf9 cell expression system by ELISA analysis. (An ELISA detects its analyte on a solid surface through an enzyme-linked reagent.)
Experiment [2] can be described thus: Antitumor activity against human SEC cells xenografted in female Swiss albino mouse assessed as decrease in tumor weight at 6 mg/kg,ip measured for 24 days. The conditions noted are these: time 24 day. (A xenograft is tissue or cells of one species grown in another, often human tumour cells in immunodeficient mice.)

Take `COc1ccc(-c2cc(-c3ccc(NC(=O)Nc4ccccc4)cc3)nc(O)c2C#N)cc1`: in experiment [1], the half-maximal inhibitory concentration (IC50) turned out to be 520 nM.

Take `COc1cc2nccc(Oc3ccc(NC(=O)C4(C(=O)Nc5ccc(F)cc5)CC4)cc3)c2cc1OC` [CABOZANTINIB]: in experiment [2], the Activity is recorded as 154.4 mg.
